From US20180117159A1, “Method for producing solid formulations with improved dissolution by annealing with an adjuvant” (priority 2016, published 2018)

Assays:
Type in all cases: physicochemical
[1] = solubility of indomethacin in aqueous buffer at pH 2.5 (excess solid, stirred, 20 nm filtered, HPLC)
Procedure: In addition to Examples 1-6, other experiments were done in which the solubility of indomethacin in aqueous buffer at pH 2.5 was determined. This was done by placing an excess amount of indomethacin solid (approximately 100 mg) in 20 mL of the buffer and stirring at a constant temperature of 37° C. for three days, after which an aliquot was taken and filtered through a Watman Anotop-10 20 nm filter, then assayed by HPLC for the dissolved indomethacin concentration in the solution. Subsequently, the temperature of the remaining indomethacin-buffer mixture was raised to approximately 95° C. and kept at that temperature with stirring for an additional 24 hours. After 24 hours, the dissolved indomethacin concentration was again determined by taking an aliquot, filtering through a 20 nm Anotop-10 filter, and assaying by HPLC.

[2] = dissolution, USP Type II (paddle) apparatus, 150 mg formulation in 500 mL phosphate buffer pH 2.5 at 37° C.; conditions: pH 2.5 buffer, 30 minutes
Procedure: Dissolution experiments were done using a USP Type II (paddle type) apparatus, dissolving 150 mg of formulation in 500 mL of water buffered to a pH of 2.5 using phosphate buffer at 37° C. This corresponded to 15 mg of indomethacin per 500 mL of dissolution medium for the 10% indomethacin formulation, and 30 mg of indomethacin per 500 mL of dissolution medium for the 20% indomethacin formulation. In addition, pure indomethacin was dissolved in a similar USP type II apparatus for 30 minutes for comparison. […]

[3] = differential scanning calorimetry of annealed indomethacin-PVP mixtures (absence of melting endotherm = all drug dissolved)
Procedure: Binary physical mixtures of the drug indomethacin and the polymer PVP (polyvinylpyrrolidone K29/32), both used as received, were mixed in various ratios, so the drug weight fraction ranged from 2.5-30% w/w (compared to the total physical mixture). Mixing was done for 15 minutes using a mortar and pestle. Solid solutions were then prepared by annealing and annealing with an adjuvant.
Annealing was done by transferring weighed samples of the physical mixtures into glass vials, which were then stored in an oven without inducing a vacuum at 130° C. for 6 days to equilibrate and allow the indomethacin to distribute and dissolve in the PVP. After annealing, the samples were allowed to cool to room temperature.
Annealing with an adjuvant was done by transferring weighed amounts of the physical mixtures into glass vials, then adding the adjuvant ethanol dropwise to the surface of the physical mixture in each vial in an adjuvant weight equal to approximately 25% of each dry drug-polymer physical mixture sample. No mixing of the adjuvant and physical mixture was done after adding the ethanol drops. The drug, polymer and adjuvant were then allowed to anneal in an oven at 70° C., with some samples annealing for 4 hours, some for 8 hours and some for 12 hours. After annealing with an adjuvant for each specified time, the samples were allowed to cool to room temperature. […]

estimate for the solubility of indomethacin in the aqueous buffer ([1]; 37° C., pH 2.5, estimate from solubility experiment and Example 1 dissolution): one to two
solubility at 3 days ([1]; aqueous buffer, thermodynamic from solid, pH 2.5, 37° C., after three days stirring, read-out: dissolved indomethacin concentration (solubility) in aqueous buffer): < 1 µg/mL
solubility ([1]; aqueous buffer, thermodynamic from solid, pH 2.5, three days at 37° C. plus an additional day at 95° C., read-out: dissolved indomethacin concentration (solubility) in aqueous buffer): ~27 µg/mL
dissolved indomethacin concentration (solubility) in aqueous buffer ([1]; pH 2.5, 37° C., after three days stirring): below one
dissolution in the aqueous buffer compared with indomethacin in physical mixtures with PVP [2]: much slower
indomethacin concentration in PVP up to which all of the drug dissolved (no melting endotherm by DSC) ([3]; annealed with ethanol adjuvant (about 25% of mixture weight) for 12 hours at 70° C.): approximately 15 % by weight
indomethacin concentration in PVP up to which all of the drug dissolved (no melting endotherm by DSC) ([3]; annealed without an adjuvant for 6 days at 130° C.): approximately 15 % by weight
SMILES: COc1ccc2c(c1)c(CC(=O)O)c(C)n2C(=O)c1ccc(Cl)cc1 [indomethacin]
